Consider two compounds from EP4818152A1, “METHOD FOR PREPARING L-SERINE HYDROCHLORIDE AND USE THEREOF” (Astrogen, Inc., priority 2023, dated 2025).

The AUC(0-t) is exposure summed from dosing to a finite time, without extrapolation to infinity. As a reminder, the Cmax is the peak of the concentration-time curve. Broadly, the Tmax is the time at which the peak concentration occurs. For orientation: half-life means the time in which the quantity being followed falls by half. Read a high half-life as slow loss.

Where two headings read alike, the source gives them in different places.

Series [1] is described as follows: Mouse PK experiment (serum levels by LC-MS/MS).
Experimental: (§1) -6, -4, -2, and 0 hours before drug administration and 0.25, 0.5, 1, 3, 6, 9, and 12 hours after drug administration, the experimental mice were placed in a restrainer, a 2 mm incision was made at the tip of the tail, and about 40-50 µL of blood was collected into a heparin capillary tube while massaging the tail. […] Blood samples were transferred to 2 mL tubes and centrifuged at 2000× g for 10 minutes to separate the serum, which was then transferred to new tubes at about 20-25 µL per sample. […] The internal standard D, L-serine-2,3,3-d3 stock solution was prepared at a concentration of 60 µg/mL for preparing a calibration curve and at 2 µg/mL for spiking into samples. To prepare the reagents required for creating the calibration curve, 10 µL of the diluted stock solution and 10 µL of the internal standard solution (D, L-serine-2,3,3-d3, 60 µg/mL) were spiked into 980 µL of a solvent with a ratio of acetonitrile/water/trifluoroacetic acid (v/v/v, 96/5/0.5). […] The mixed solution was centrifuged at 16,000 g for 10 minutes, and the supernatant was separated and injected into LC-MS/MS at a volume of 5 µL. The ultra-high-performance liquid chromatography system consisted of a pump (LC-40D X3), an autosampler (SIL-40CX3), a column oven (CTO-40C), and a system controller (SCL-40) from Shimadzu (Duisburg, Germany), and the mass spectrometer used was a QTRQP LC-MS/MS 6500+ from SCIEX (Framingham, MA, USA). The column used was a CROWNPAK CR-I (+) [3.0 x 150 mm, 5 micron] from DAICEL (Osaka, Tokyo), and the column oven was set to 30°C. Acetonitrile/water/trifluoroacetic acid (v/v/v, 96/5/0.5) was used as the mobile phase, and the elution was performed under isocratic conditions. Mass spectrometry detection was performed under multiple reaction monitoring (MRM) conditions in ESI+ mode. MS/MS parameters were ion spray voltage, 5500 V; temperature 500°C; curtain gas, 30 psi; ion source gas (GS1), 50 psi, ion source gas (GS2), 50 psi. The declustering potential (DP), entrance potential (EP), collision energy (CE), and collision cell exit potential (CXP) values under MRM conditions were optimized in manual tuning mode using a syringe infusion pump, and mass spectrometric analysis was performed. Data acquisition and processing were performed using AB SCIEX Analyst software.
A short description of series [2]: Storage stability in aqueous solution (discoloration, precipitation). Format: physicochemical. The following applies: stored in an aqueous solution at room temperature for one month.
Series [3] concerns valproic acid (VPA)-induced autism model mice. In words: Three-chamber test of social interaction in VPA-induced autism model mice. It counts as in vivo. The following applies: oral, 14 days from day 21 after birth; 3-chamber test 35 days after birth; versus vehicle-treated VPA mice. Here is the method:
In order to perform a behavioral experiment on valproic acid (VPA)-induced autism model mice using L-serine hydrochloride prepared in Example 3, 600 mg/kg of VPA dissolved in 0.9% NaCl saline was administered subcutaneously to pregnant dams to obtain 14 VPA-induced autism model mice. Meanwhile, 8 pups born to the dams that were not administered VPA were used as a control group. […] The drug was orally administered at a dose of 10 mL/kg per day based on the individual's body weight, which is equivalent, on a molar basis, to administering 400 mg/kg of L-serine hydrochloride to humans.
Thirty-five days after birth, the mice's social interaction abilities were tested using a three-chamber test. Social novelty was evaluated based on the interaction time during an initial encounter with a novel mouse compared with a re-encounter with a familiar mouse. Sociability reflects the degree of social interaction between a mouse and another mouse, and was measured by evaluating the interaction time that the mouse spent interacting with another mouse located in one side of an empty chmber.

For series [4] the following is noted: mouse, in vivo.
Experimental: as §1
The next series can be described thus: in vivo. The following applies: mouse.

Experimental for in vivo: as §1

In the case of `Cl.N[C@@H](CO)C(=O)O` [L-Serine Hydrochloride (Example 3), L-serine hydrochloride], in series [1] (mouse PK, serum), the Cl/F is reported as 3.77±0.94 (mg/kg)/(µg/mL)/h. Also, in series [1] (mouse, in vivo), the AUC(0-t) is 141 ± 37.4 µg·h/mL, the Cmax was 77.7 ± 8.49 µg/mL, the Tmax turned out to be 37.2 min and the half-life is 108 ± 16.2 min. For the same compound, in series [2], the discoloration or precipitation entry is recorded as “no discoloration or precipitation occurred”. Moreover, in series [3], the sociability result is on record as “statistically significant improvements” and the social novelty result is recorded as “statistically significant improvements”.
As for `N[C@@H](CO)C(=O)O` [L-Serine, L-serine], the Cl/F in series [4] is on record as 4.92±1.20 (mg/kg)/(µg/mL)/h. Further, in “in vivo”, the AUC(0-t) came out at 81.5 ± 22.5 µg·h/mL, the maximum concentration (Cmax) is 67.5 ± 25.9 µg/mL, the Tmax turned out to be 15 min and the half-life was 72.6 ± 28.8 min.
